Test: Solubility of the precursor in chloroform, toluene and THF (solution left to stand, precipitation observed)
Type: physicochemical
Settings: for Solubility: toluene, THF, 1% or 5% by mass, left to stand 12 hours at room temperature
Protocol: Precursor 1 synthesized in Example 1 was dissolved respectively in chloroform, toluene and THF so as to be contained therein in concentrations of 1.0% by mass and 5.0% by mass, and then passed through a filter so as to prepare each solution.
The evaluation criteria of the solubility in Table 1 are as follows:
A: No precipitation of a solute was observed when a precursor was dissolved in each solution so as to be contained in a concentration of 5% by mass, and then left to stand for 12 hours at a room temperature.
B: No precipitation of a solute was observed when a precursor was dissolved in each solution so as to be contained in a concentration of 1% by mass, and then left to stand for 12 hours at a room temperature.
C: Precipitation of a solute was observed when a precursor was dissolved in each solution so as to be contained in a concentration of 1% by mass, and then left to stand for 12 hours at a room temperature.

| Compound | Solubility | solute separation from solution (toluene and THF, 1.0% by mass and 5.0% by mass, filtered, left to stand over night at room temperature) |
| --- | --- | --- |
| CCCCCCC(CCCC)C(=O)OC(CC)c1ccc(-c2ccc(-c3ccc4c(c3)sc3c5ccc(-c6ccc(-c7ccc(C(CC)OC(=O)C(CCCC)CCCCCC)s7)s6)cc5sc43)s2)s1 (stereo not shown) [Example 15] | A (No precipitation of a solute was observed when a precursor was dissolved in each solution so as to be contained in a concentration of 5% by mass, and then left to stand for 12 hours at a room temperature.) | – |
| CCCCCCC(CCCC)C(=O)OC(CC)c1ccc(-c2ccc3c(c2)sc2c4ccc(-c5ccc(C(CC)OC(=O)C(CCCC)CCCCCC)cc5)cc4sc32)cc1 (stereo not shown) [Example 14] | A (No precipitation of a solute was observed when a precursor was dissolved in each solution so as to be contained in a concentration of 5% by mass, and then left to stand for 12 hours at a room temperature.) | – |
| CCCCSC(=S)OC(CC)c1ccc(-c2ccc3c(c2)sc2c4ccc(-c5ccc(C(CC)OC(=S)SCCCC)s5)cc4sc32)s1 (stereo not shown) [Example 16] | A (No precipitation of a solute was observed when a precursor was dissolved in each solution so as to be contained in a concentration of 5% by mass, and then left to stand for 12 hours at a room temperature.) | – |
| CCCCCCC(CCCC)C(=O)OC(CC)c1ccc(-c2ccc3c(c2)sc2c4ccc(-c5ccc(C(CC)OC(=O)C(CCCC)CCCCCC)s5)cc4sc32)s1 (stereo not shown) [Example 13] | A (No precipitation of a solute was observed when a precursor was dissolved in each solution so as to be contained in a concentration of 5% by mass, and then left to stand for 12 hours at a room temperature.) | solute separation was not observed at all in any solvent and concentration |
| CCCCCCCCc1ccc2c(c1)sc1c3ccc(CCCCCCCC)cc3sc21 [Comparative Example 2, 2,7-dioctyl[1]benzothieno[3,2-b][1]benzothiophene, reference compound] | B (No precipitation of a solute was observed when a precursor was dissolved in each solution so as to be contained in a concentration of 1% by mass, and then left to stand for 12 hours at a room temperature.) | – |
| c1ccc(-c2ccc3c(c2)sc2c4ccc(-c5ccccc5)cc4sc32)cc1 [Comparative Example 1, 2,7-diphenyl [1]benzothieno[3,2-b][1]benzothiophene, reference compound] | C (Precipitation of a solute was observed when a precursor was dissolved in each solution so as to be contained in a concentration of 1% by mass, and then left to stand for 12 hours at a room temperature.) | – |

Reference: US8440713B2, “[1]benzothieno[3,2-B][1]benzothiophene compound and method for producing the same, and organic electronic device using the same” (Ricoh Company, Ltd., priority 2008, dated 2013)
